According to patent CN108159055A, “治疗乳腺癌的长效递药系统、其制备方法及应用” (XI'AN LIBANG MEDICINE SCIENCE AND TECHNOLOGY Co Ltd, priority 2018, dated 2018):

Test: Miscibility of solvents with oils (Test Example 2 part 1, Table 2)
Format: physicochemical
Settings: no phospholipid

CC(=O)OCC(COC(C)=O)OC(C)=O.CC(=O)OCC(COC(C)=O)OC(C)=O [三乙酸甘油酯]
miscibility (with benzyl alcohol): 混溶
miscibility (with benzyl benzoate): 混溶
miscibility (with ethanol): 不混溶
miscibility (with ethyl lactate): 不混溶
